Source: BigSolDB 2.1

Nc1cccnc1
solubility (mole fraction)
Details | 283.15 K | 288.15 K | 293.15 K | 298.15 K | 303.15 K | 308.15 K | 313.15 K | 318.15 K | 323.15 K
in ethanol | 0.438 | 0.476 | 0.518 | 0.566 | 0.612 | 0.66 | 0.71 | 0.764 | 0.821
in toluene | 0.0297 | 0.0427 | 0.0646 | 0.0971 | 0.152 | 0.223 | 0.313 | 0.418 | 0.546
